Source: patent publication US4501748A, “1,4-Dihydropyridine derivatives” (Kyowa Hakko Kogyo Co., Ltd., priority 1983, dated 1985)
Where a name gives a salt, the structure may show the parent alone.

How the values were obtained:
[1] = test system: Spontaneously hypertensive rat (SHR); assay: Hypotensive effect: intravenous administration to SHR (no anesthesia); format: in vivo, Okamoto strain, male); conditions: 5 animals
Procedure: (1.) Intravenous Administration to SHR (no anesthesia)
Spontaneously hypertensive rat (SHR) (Okamoto strain, aging 20 to 30 weeks, male) were anesthetized with sodium thiopental (50 mg/kg, ip). A cannula for measuring blood pressure was inserted into the descending aorta from the right femoral artery and a cannula for intravenous administration was inserted into the left carotid vein, and these cannulas were fixed on the […], respectively. Change in blood pressure by intravenous administration of each of drugs were measured next day without any anesthesia. As the drugs, a solution of each of the drugs in polyethylene glycol 400 was intravenously administered at the dose of 0.1 ml/100 g body weight of the rat.

[2] = test system: Spontaneously hypertensive rat (SHR); assay: Hypotensive effect: oral administration to SHR (no anesthesia), plethysmographic tail method; format: in vivo, Okamoto Strain, male)
Procedure: (2) Oral Administration to SHR (no anesthesia)
Change in systolic blood pressure when drugs were orally administered to spontaneously hypertensive rat (SHR) (Okamoto Strain, aging 15 to 26 weeks, male) was measured by the plethysmographic tail method (Ueda Seisakusho, USM-105R).
Drugs were compulsorily orally administered at the dose of 0.5 ml/100 g body weight of the rat in the form of a suspension in 0.3% carboxymethyl cellulose, using a gastric tube.

[3] = Acute toxicity, oral administration to mice (survival rate 72 hours after administration); format: in vivo, mice (ddY type; conditions: mouse, in vivo, mice ddY male
Procedure: (§1) Drugs were compulsorily orally administered to mice (ddY type, body weight of 20 to 24 g, male) and the survival rate 72 hours after the administration was studied. A suspension of each of the drugs in water having added a small quantity of Tween 80 thereto was orally given at the dose of 0.1 ml/10 g mouse body weight, using a gastric tube.

mice = assay: as above; format: in vivo, mice (ddY type; conditions: mice ddY male, hydrochloride, 4320 min
Procedure: as §1

[4] = Hypotensive effect (general statement); format: in vivo; conditions: among the (±)-α-form
[5] = LD50 in the oral administration in male rats; conditions: rat, in vivo

| Compound | Maximum Decrease in Mean Blood Pressure ([1]; 1 μg/kg i.v.) | Maximum Decrease in Mean Blood Pressure ([1]; 10 μg/kg i.v.) | Maximum Decrease in Systolic Blood Pressure ([2]; 1 mg/kg p.o., 8 animals) | LD50 at 72 h [3] | Maximum Decrease in Mean Blood Pressure ([1]; 10 μg/kg i.v., hydrochloride) | Acute Toxicity LD50 (mice) | hypotensive effect [4] | LD50 [5] | Maximum Decrease in Mean Blood Pressure ([1]; 100 μg/kg i.v.) | Maximum Decrease in Systolic Blood Pressure ([2]; 3 mg/kg p.o., 4 animals) | Maximum Decrease in Systolic Blood Pressure ([2]; 10 mg/kg p.o., 4 animals) |
| --- | --- | --- | --- | --- | --- | --- | --- | --- | --- | --- | --- |
| COC(=O)C1=C(C)NC(C)=C(C(=O)OC2CCCN(Cc3ccccc3)C2)C1c1cccc([N+](=O)[O-])c1 (racemic) [(±)-α-form, (±)-2,6-dimethyl-4-(3-nitrophenyl)-1,4-dihydropyridine-3,5-dicarboxylicacid-3-(1-benzyl-3-piperidyl)ester-5-methyl ester] | 23.1 ± 6.4 mmHg | 45.6 ± 6.5 mmHg | 35.6 ± 6.3 mmHg | 218 mg/kg | – | – | – | – | – | – | – |
| COC(=O)C1=C(C)NC(C)=C(C(=O)OC2CCCN(Cc3ccccc3)C2)C1c1cccc([N+](=O)[O-])c1 (single isomer, unassigned) [(+)-α-form, (+)-α-2,6-dimethyl-4-(3-nitrophenyl)-1,4-dihydropyridine-3,5-dicarboxylic acid-3-(1-benzyl-3-piperidyl)ester-5-methyl ester hydrochloride] | 42.2 ± 11.5 mmHg | – | 56.3 ± 13.0 mmHg | – | 67.4 ± 4.7 mmHg | 95 mg/kg | excellent hypotensive effect | 95 mg/kg | – | – | – |
| COC(=O)C1=C(C)NC(C)=C(C(=O)OC2CCCN(Cc3ccccc3)C2)C1c1cccc([N+](=O)[O-])c1 (single isomer, unassigned) [(-)-α-form, (-)-α-2,6-dimethyl-4-(3-nitrophenyl)-1,4-dihydropyridine-3,5-dicarboxylic acid-3-(1-benzyl-3-piperidyl)ester-5-methyl ester hydrochloride] | – | – | – | – | 23.4 ± 7.9 mmHg | 918 mg/kg | – | – | 27.3 ± 6.1 mmHg | 22.5 ± 9.6 mmHg | 30.0 ± 5.3 mmHg |
